Data reported in PubChem BioAssay AID2305 (GlaxoSmithKline (GSK), 2010).

What follows are molecules tested on P. falciparum 3D7 growth, pLDH absorbance (assay: blood-stage malaria parasite growth potency – strain 3D7, dose response (AID 2305)).
Work on `O=C(Nc1ccc(Cn2ncc(N3CCCNCC3)c(Cl)c2=O)cc1)Nc1cc(C(F)(F)F)cc(C(F)(F)F)c1` yielded an IC50 of 590 nM. `CCCCCCc1c(C)[nH]c2cc(OC)ccc2c1=O` gave an IC50 of 120 nM. `CCCCC(O)c1cc(O)c2c(c1)OC(C)(C)CC2C1=CCN(Cc2ccc3ccccc3c2)CC1` (stereo unspecified) was tested, and the IC50 was 970 nM. `Cc1noc(C)c1-c1ccc2c(Nc3ccc([N+](=O)[O-])cc3)c(C(N)=O)cnc2c1` was tested, and the IC50 was 690 nM. Molecule `CNC(=O)c1ccccc1Nc1nc(Nc2cccnc2)ncc1C` has an IC50 of 100 nM. For `COCCCNc1nc2cc(OC)c(OC)cc2c2nc(-c3ccccc3)nn12`, the IC50 was 190 nM. Molecule `O=C(/C=C/c1ccc(F)cc1)NC1CCC(CCN2CCc3ccc(-n4cccn4)cc3CC2)CC1` (stereo unspecified) has an IC50 of 1440 nM. For `NC(=Nc1nc(-c2ccccn2)cc2ccccc12)c1cccc(Cl)c1`, the IC50 was 310 nM. With `Cn1cnc(CCNC(=O)c2cccc(-c3csc(-c4nc5ccccc5[nH]4)c3)c2)c1` the IC50 was 600 nM. With `CN1CCCC1CCNC(=O)[C@H](CC1CCCCC1)NC(=O)c1ccc(O)c(-c2ccc(Cl)c(Cl)c2)c1` (stereo partly specified) the IC50 was 740 nM. Molecule `CCC[C@@H](C(=O)NCCc1cccc(OC)c1)N1C(=O)c2c(ccc(OC)c2OC)C1C(=O)Nc1c(C)cccc1C` (stereo partly specified) has an IC50 of 810 nM. `CN(C)CCOc1ccc2[nH]c(-c3cccc(OCc4ccccc4)c3)nc2c1C#N` showed an IC50 of 260 nM. In the case of `CCC(C)C(COC(=O)c1cc(OC)c(OC)c(OC)c1)N(C)CCN(C)C(COC(=O)c1cc(OC)c(OC)c(OC)c1)C(C)CC` (stereo unspecified), the IC50 is reported as 950 nM. Work on `O=S(=O)(ON=C1CCc2ccccc21)c1ccc(Cl)cc1` yielded an IC50 of 1310 nM. Molecule `CCCCCC(C)C(C)c1cc(O)c2c(c1)OC(C)(C)c1cnccc1-2` (stereo unspecified) has an IC50 of 770 nM. `CCCC(=O)Nc1ccc(OCCCN(Cc2cccc(C(F)(F)F)c2)c2ccc(C#N)c(C(F)(F)F)c2)cc1` was tested, and the IC50 was 1090 nM. Molecule `CCOC(=O)c1ccc(N2CCCCC2)c(NC(=O)C(Cl)(Cl)Cl)c1` has an IC50 of 850 nM. `Cc1ccc(CN2CCN(CC(O)COc3ccc4c(c3)CCC4)CC2)cc1` (stereo unspecified) showed an IC50 of 860 nM. Molecule `CC(Cc1ccc(NC(=O)c2ccc(CNCc3ccccc3)cc2)cc1)N(CCc1cccc(Cl)c1)C(=O)OC(C)(C)C` (stereo unspecified) has an IC50 of 970 nM. In the case of `CNCc1ccc(-c2ccc3ccnc(N)c3c2)cc1`, the IC50 is reported as 260 nM. For `C#CC(C)(CO)N1CCCC1` (stereo unspecified), the IC50 was 380 nM. `COc1ccc2ncc(F)c(CCN3CCC(NCc4cnc5c(c4)NC(=O)CS5)CC3)c2c1` showed an IC50 of 570 nM. `COc1ccc2nccc([C@@H](O)CN3CCC(NC(=O)c4ccc(-c5ccc(C#N)cc5)cc4)CC3)c2c1` gave an IC50 of 160 nM. Work on `COCCN1CCC(CN(C)CC(C)(C)c2nc(-c3ccc(Cl)c(O)c3)c(-c3ccncc3)[nH]2)CC1` yielded an IC50 of 1030 nM. In the case of `O=C(CN1CCC(NCc2cnc(-c3ccc(Cl)cc3)[nH]2)CC1)N1CCc2ccccc21`, the IC50 is reported as 650 nM. In the case of `CSCCC(C(=O)O)N1C(=O)c2ccccc2C1=O` (stereo unspecified), the IC50 is reported as 1030 nM. In the case of `CCc1c(C)nc(-n2nc(C)cc2NC(=O)C(CC)c2ccccc2)[nH]c1=O` (stereo unspecified), the IC50 is reported as 710 nM. Work on `CN1CCN(c2nc(NCCNc3ccc([N+](=O)[O-])cc3)c3ccccc3n2)CC1` yielded an IC50 of 1320 nM. `Cc1cccc2[nH]c(-c3ccc(-c4ccc(CNCc5ccc(S(C)(=O)=O)cc5)cc4)cc3)nc12` was tested, and the IC50 was 750 nM. Work on `O=C(NC1CCCCCC1)C1CCCN(C(=O)c2ccc(O)c(-c3ccc(Cl)c(Cl)c3)c2)C1` (stereo unspecified) yielded an IC50 of 760 nM. Molecule `CCCC(C)N(Cc1ccc(C(C)(C)C)cc1)C(=O)c1ccc(OC)cc1` (stereo unspecified) has an IC50 of 110 nM. `CC(=O)Nc1nc(C(=O)Nc2cccc(-c3cccc(-c4nc5ccc(F)cc5[nH]4)c3)c2)cs1` gave an IC50 of 90 nM. In the case of `Cc1nnc2c(NC(=O)NC3CCCC3)cc3ccc(-c4cccc(CN5CCN(C)CC5)c4)cc3n12`, the IC50 is reported as 920 nM. `O=c1cc(NCCCNCc2ccc3c(c2)OC(F)(F)O3)[nH]c2ccccc12` was tested, and the IC50 was 770 nM. `CC(C)CCN=C(N)Nc1ccc(OCCCOc2ccc(NC(N)=NCCC(C)C)cc2)cc1` was tested, and the IC50 was 200 nM. `COc1ccc2ncc(F)c([C@@H](O)CN3CCC(NCc4cc5c(cn4)OCS5)CC3)c2c1` was tested, and the IC50 was 140 nM. Molecule `COc1ccc(C(C)Nc2nc(N)c3cc(OC)c(OC)cc3n2)cc1` (stereo unspecified) has an IC50 of 940 nM. `CCCN1CCC(c2c[nH]c3ccc(NC(=O)Nc4cccc(Cl)c4Cl)cc23)CC1` gave an IC50 of 810 nM. `CC[C@H](NC(=O)c1c(CN2CCC(N3CCCCC3)CC2)c(-c2ccccc2)nc2cc(O)ccc12)c1ccccc1` was tested, and the IC50 was 1370 nM. `O=C(Nc1ccc(OC2CCN(Cc3ccc(F)cc3)CC2)cc1)c1cccs1` was tested, and the IC50 was 970 nM. `CC(=O)Nc1ncc(C(=O)Nc2ccc(-c3cccc(-c4nc5ccc(F)cc5[nH]4)c3)cc2)s1` gave an IC50 of 350 nM. Work on `COc1ccc(C(=O)CCC(=O)N(Cc2ccc(-c3ccc(CNCc4cccnc4)cn3)cc2)C2CCN(Cc3ccccc3)CC2)cc1F` yielded an IC50 of 980 nM. `COc1ccc2nccc([C@@H](O)CN3CCC(NCc4cn5cc(F)ccc5n4)CC3)c2c1` showed an IC50 of 780 nM. With `CC(C)COc1ccc(Cl)cc1Cc1ccc(-c2nc3c(F)cccc3[nH]2)o1` the IC50 was 810 nM. `COc1ccc(-c2cccc(NC(=O)c3cccc(C#N)c3)c2)cc1CN1CCNCC1` gave an IC50 of 730 nM. Work on `Cc1cc(C)n(Cc2ccc(C(=O)NCC3CCCCC3)cc2)n1` yielded an IC50 of 960 nM. `CC(C)c1ccc2[nH]c(C(=O)NC3CCC(N4CCCc5ccc(C#N)cc5C4)CC3)cc2c1` (stereo unspecified) gave an IC50 of 1090 nM. `O=C(NCc1ccccc1)c1nn(CCCN2CCC(N3CCCC3)CC2)cc1-c1ccc(Cl)c(Cl)c1` was tested, and the IC50 was 670 nM. With `Cc1ccccc1C1CCN(C2CCC(NC(=O)c3cc(-c4ccccc4)oc3C)CC2)CC1` (stereo unspecified) the IC50 was 1030 nM. `CCOC(C(=O)OCC1CCCN1C)(c1ccccc1)c1ccccc1` (stereo unspecified) gave an IC50 of 860 nM. For `Cc1nnsc1C(=O)Nc1ccc(-c2ccc(-c3nc4c(C)cccc4[nH]3)s2)cc1`, the IC50 was 590 nM. In the case of `NC(N)=Nc1ccc(Cc2ccc(N=C(N)N)cc2)cc1`, the IC50 is reported as 260 nM. `CC[C@H](C)CNC(=O)c1cncc(-c2ccc(CNC3CCCC3)cc2)c1` gave an IC50 of 1120 nM. `O=[N+]([O-])c1cccc(NC(=S)N2CCCN(Cc3ccc(Cl)cc3Cl)CC2)c1` was tested, and the IC50 was 930 nM. `Cc1ccc(/C=C/C(=O)NC2CCC(N3CCC(c4ccccc4C)CC3)CC2)cc1F` (stereo unspecified) was tested, and the IC50 was 1040 nM. Molecule `CCN(CC)CCN(Cc1ccc(-c2ccc(C(F)(F)F)cc2)cc1)C(=O)Cn1c(CCc2ccc(F)cc2)nc(=O)c2sccc21` has an IC50 of 670 nM. `Nc1ccc(-c2nc3ccc(-c4ccc5nc(-c6ccc(N)cc6)[nH]c5c4)cc3[nH]2)cc1` was tested, and the IC50 was 130 nM. For `CCCCCn1c(Sc2ccc(C#N)c([N+](=O)[O-])c2)nnc1-c1cccs1`, the IC50 was 780 nM. In the case of `O=C(Nc1cc(C(F)(F)F)cc(C(F)(F)F)c1)Nc1ccc(Cl)c(Cl)c1`, the IC50 is reported as 240 nM. `O=c1cc(-c2ccc3ccccc3c2)[nH]c2ccccc12` showed an IC50 of 1160 nM. `CN(C)CCNC(=O)c1ccc2c(c1)ncn2-c1cc(OCc2ccccc2C(F)(F)F)c(C(N)=O)s1` (tested in a mixture with another compound) gave an IC50 of 810 nM. With `Cc1cc(N2CCCC2)nc(Nc2ccc(NC(=O)c3cccc(F)c3)cc2)n1` the IC50 was 180 nM. `CC(C)C[C@H](NC(=O)c1cc2ccccc2s1)C(=O)N[C@H]1CCN(Cc2ccc(I)c(OC3CCN(C)C3)c2)C1` (stereo partly specified) gave an IC50 of 920 nM. `CS(=O)(=O)c1ccc2nc(-c3cc(-c4cccc(F)c4)cnc3N)[nH]c2c1` was tested, and the IC50 was 1090 nM. In the case of `COc1ccc(NC(=O)[C@H](CC(C)C)Nc2ccnc(Nc3ccccc3)n2)cc1`, the IC50 is reported as 1570 nM. With `COc1cc(Nc2nccc(N3CCC(NC(=O)C4COc5ccccc5O4)C3)n2)cc(OC)c1OC` (stereo unspecified) the IC50 was 920 nM. `NS(=O)(=O)NCCCN1CCN(c2ccccc2)CC1` showed an IC50 of 980 nM. For `CCN1CCC(N(Cc2ccc(-c3ccc(C(F)(F)F)cc3)cc2)C(=O)Cn2nc(C)c(=O)cc2SCc2ccc(F)cc2)CC1`, the IC50 was 1010 nM. Work on `C=CCOC(=O)N1CCC(CNCc2ccc(-c3ccc(-c4nc5ccc(C(F)(F)F)cc5[nH]4)cc3)cc2)C1` (stereo unspecified) yielded an IC50 of 150 nM. Work on `c1ccc(Oc2ccc(Nc3ccnc4cc(-c5ccc(CN6CCCCC6)o5)ccc34)cc2)nc1` yielded an IC50 of 330 nM. `CCOc1ccc(-c2cc3nc(C4CCNCC4)c(C(=O)Nc4ccc(C)cc4Cl)cn3n2)cc1` was tested, and the IC50 was 920 nM. With `O=C(Nc1cccc(CN2CCN(Cc3cccc(O)c3)CC2)c1)c1ccc(Cl)c(Cl)c1` the IC50 was 410 nM. `CC(C)CNCc1ccc(-c2ccc(CN(C(=O)NC3CCCCC3)C3CCN(Cc4ccccc4)CC3)cc2)cc1` was tested, and the IC50 was 780 nM. In the case of `COCCNCc1cccc(-c2ccccc2CN(C(=O)Nc2ccccc2)C2CCN(Cc3ccccc3)CC2)c1`, the IC50 is reported as 910 nM. Molecule `COc1c(C2CCN(CCCCNC(=O)c3ccc(-c4ccc(C#N)cc4)nc3)CC2)ccc2c1CCCC2` has an IC50 of 530 nM. `O=C(Nc1cccc(CN2CCCN(Cc3ccc(F)cc3)CC2)c1)c1ccc(Cl)c(Cl)c1` showed an IC50 of 960 nM. `OC(CNc1cccc(Cl)c1)Cn1c2ccc(Cl)cc2c2cc(Cl)ccc21` (stereo unspecified) showed an IC50 of 960 nM. For `CC(C)Cn1c(Sc2ccc(C#N)c([N+](=O)[O-])c2)nnc1-c1ccc(N(C)C)cc1`, the IC50 was 220 nM. Work on `CC(C)(C)C(=O)Nc1ccccc1Oc1ccc(Cl)cc1` yielded an IC50 of 10 nM. Molecule `COc1ccc(NC(=O)[C@H](CC(C)C)Nc2cc(C)nc(NCCc3ccccc3)n2)cc1` has an IC50 of 890 nM. `OCc1ccc(-c2cncc(Nc3ccc(F)c(Cl)c3)c2)cc1` was tested, and the IC50 was 90 nM. `Cc1ccc(CN2CCN(Cc3cccc(NC(=O)c4cccs4)c3)CC2)cc1C` was tested, and the IC50 was 1030 nM. `COc1ccc(CNC2Cc3ccccc3C2)cc1-c1ccc(OC)c(S(=O)(=O)NCCN2CCCC2)c1` gave an IC50 of 770 nM. Work on `CS(=O)(=O)c1ccc(-c2cc(C(F)(F)F)nc(N[C@@H]3CCCC[C@H]3OCc3ccccc3)n2)cc1` yielded an IC50 of 60 nM. `COc1ccc(-c2nonc2NC(=O)c2ccc(C(C)(C)C)cc2)cc1OC` was tested, and the IC50 was 810 nM. For `CC(C)(CN)c1nc(-c2ccc(Br)c(O)c2)c(-c2ccncc2)[nH]1`, the IC50 was 970 nM. `CCN(CCCN1CCCCC1)c1cc(C)nc(Nc2cccc(C(F)(F)F)c2C)n1` showed an IC50 of 610 nM. In the case of `NC(=NCc1ccc(Cl)c(Cl)c1)NC(=NCCCCCCN=C(NC(N)=NCc1ccc(Cl)c(Cl)c1)N1CCCCC1)N1CCCCC1`, the IC50 is reported as 570 nM. With `COc1ccc(CN2CCCN(Cc3ccc(C(=O)Nc4ccc(Cl)cc4)cc3)CC2)cc1` the IC50 was 920 nM. For `Cc1cnc2ccc(NS(=O)(=O)c3ccc4c(Cl)cccc4c3)cc2c1N1CCNCC1`, the IC50 was 750 nM. With `CO/C(=C\C=C\c1cc2cc(Cl)c(Cl)cc2[nH]1)C(=O)NCCCN1CCN(c2ccc(OC)cc2)CC1` the IC50 was 700 nM. With `CC(O)CNc1nc2ccccc2n1CC(=O)Nc1cccc(C(=O)Nc2cccc(C(F)(F)F)c2)c1` (stereo unspecified) the IC50 was 100 nM. With `COc1ccc(CCn2c(=N)c(C(=O)NC3CCCC3)cc3c(=O)n4ccccc4nc32)cc1` the IC50 was 680 nM. `CC(=O)Nc1ccc(CN(C)C2CCN(c3cc(NC(=O)c4cccc(C)c4)ccn3)CC2)cc1` gave an IC50 of 900 nM. `CN1CCCC(CN2CCN(Cc3cccc(-c4ccc(-c5nc6ccc(C(F)(F)F)cc6[nH]5)cc4)c3)CC2)C1` (stereo unspecified) showed an IC50 of 150 nM. For `NC(N)=NN=CC(=O)Nc1cc([N+](=O)[O-])cc([N+](=O)[O-])c1`, the IC50 was 630 nM.
